Results: publication PMC2728224 (Cancer Chemotherapy and Pharmacology, 2009)
pKi: −log10 of the molar value.

Target: T1, dihydrofolate reductase (DHFR) (Homo sapiens, UniProt P00374)
T1 sequence (P00374 1-187): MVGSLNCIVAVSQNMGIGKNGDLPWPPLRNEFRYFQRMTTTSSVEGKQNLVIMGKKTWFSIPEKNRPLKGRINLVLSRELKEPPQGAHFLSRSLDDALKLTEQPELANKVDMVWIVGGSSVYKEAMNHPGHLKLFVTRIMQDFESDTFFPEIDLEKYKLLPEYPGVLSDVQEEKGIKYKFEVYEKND
Experiment: spectrophotometric DHFR activity assay
Type: biochemical

C#CCC(Cc1cnc2nc(N)nc(N)c2n1)c1ccc(C(=O)NC(CCC(=O)O)C(=O)O)cc1 (racemic) [pralatrexate]
pKi: 7.35
